Test system: P. falciparum (NF54 or 3D7 strain)
Test: Assay for P. falciparum proliferation in infected human blood cells (SYBR Green)
Assay type: cell-based, Plasmodium falciparum
Conditions: NF54 or 3D7 infected human erythrocytes, 72 hours; read-out: EC50 (nM), inhibitory efficacy in delaying P. falciparum proliferation in infected human blood cells
Method in brief: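 Infected erythrocytes (NF54 or 3D7; final 2.5% hematocrit, 0.3% parasitemia) were incubated with compounds for 72 h at 37 °C in low oxygen (3% O2, 4% CO2, 93% N2).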

| EC50 [nM] | Structure (SMILES) |
| --- | --- |
| 24 | CN(C(=O)c1cn2c(-c3ccc4c(cnn4C)c3)cnc2cn1)c1ccc(F)cc1 [Compound 106, N-(4-fluorophenyl)-N-methyl-3-(1-methyl-1H-indazol-5-yl)imidazo[1,2-a]pyrazine-6-carboxamide] |
| 218 | CN(C(=O)c1cn2c(-c3ccc4c(cnn4C)c3)cnc2cn1)c1ccc(F)cc1 [Compound 107, N-(4-fluorophenyl)-N-methyl-3-(1-methyl-1H-indazol-5-yl)imidazo[1,2-a]pyrazine-6-carboxamide] |

Same assay, conditions: Plasmodium falciparum, Erythrocyte, 72 h, NF54 or 3D7 infected human erythrocytes, 72 hours; read-out: EC50 (nM), inhibitory efficacy in delaying P. falciparum proliferation in infected human blood cells

| EC50 [nM] | Structure (SMILES) |
| --- | --- |
| 297 | COc1ccc(-c2cnc3cnc(C(=O)N(C)c4ccc(Cl)nc4)cn23)cc1 [Compound 100, N-(6-chloropyridin-3-yl)-3-(4-methoxyphenyl)-N-methylimidazo[1,2-a]pyrazine-6-carboxamide] |
| 33 | CN(C(=O)c1cn2c(-c3ccc(C(F)(F)F)cc3)cnc2cn1)c1ccc(F)cc1 [Compound 101, N-(4-fluorophenyl)-N-methyl-3-[4-(trifluoromethyl)phenyl]imidazo[1,2-a]pyrazine-6-carboxamide] |
| 53 | CN(C(=O)c1cn2c(-c3ccc(OC(F)F)cc3)cnc2cn1)c1ccc(Cl)cc1 [Compound 102, N-(4-chlorophenyl)-3-[4-(difluoromethoxy)phenyl]-N-methylimidazo[1,2-a]pyrazine-6-carboxamide] |
| 51 | CN(C(=O)c1cn2c(-c3ccc(Cl)cc3)cnc2cn1)c1ccc(F)cc1 [Compound 103, 3-(4-chlorophenyl)-N-(4-fluorophenyl)-N-methylimidazo[1,2-a]pyrazine-6-carboxamide] |
| 110 | Cc1ccc(-c2cnc3cnc(C(=O)N(C)c4ccc(F)cc4)cn23)cc1 [Compound 108, N-(4-fluorophenyl)-N-methyl-3-(4-methylphenyl)imidazo[1,2-a]pyrazine-6-carboxamide] |
| 120 | CN(C(=O)c1cn2c(-c3ccc(Cl)cc3)cnc2cn1)c1ccc(Cl)cc1 [Compound 109, N,3-bis(4-chlorophenyl)-N-methylimidazo[1,2-a]pyrazine-6-carboxamide] |

Further lines, the compound ahead of its results:

| Structure (SMILES) | EC50 [nM] |
| --- | --- |
| CN(C(=O)c1cn2c(-c3ccc(C(F)F)cc3)cnc2cn1)c1ccc(C#N)cn1 [Compound 95, N-(5-cyanopyridin-2-yl)-3-[4-(difluoromethyl)phenyl]-N-methylimidazo[1,2-a]pyrazine-6-carboxamide] | 1050 |
| CN(C(=O)c1cn2c(-c3ccc(C(F)(F)F)cc3)cnc2cn1)c1ccc(Br)nn1 [Compound 96, N-(6-bromopyridazin-3-yl)-N-methyl-3-[4-(trifluoromethyl)phenyl]imidazo[1,2-a]pyrazine-6-carboxamide] | 9990 |
| CN(C(=O)c1cn2c(-c3ccc(C(F)(F)F)cc3)cnc2cn1)c1cnc(Br)cn1 [Compound 97, N-(5-bromopyrazin-2-yl)-N-methyl-3-[4-(trifluoromethyl)phenyl]imidazo[1,2-a]pyrazine-6-carboxamide] | 4510 |
| CN(C(=O)c1cn2c(-c3ccc(C(N)=O)cc3)cnc2cn1)c1ccc(C#N)cn1 [Compound 98, 3-(4-carbamoylphenyl)-N-(5-cyanopyridin-2-yl)-N-methylimidazo[1,2-a]pyrazine-6-carboxamide] | 1500 |
| CN(C(=O)c1cn2c(-c3ccc(C(F)(F)F)cc3)cnc2cn1)c1ccccn1 [Compound 99, N-methyl-N-(pyridin-2-yl)-3-[4-(trifluoromethyl)phenyl]imidazo[1,2-a]pyrazine-6-carboxamide] | 3880 |
| CN(C(=O)c1cn2c(-c3ccc(C(N)=O)cc3)cnc2cn1)c1ccc(C#N)cc1 [Compound 104, 3-(4-carbamoylphenyl)-N-(4-cyanophenyl)-N-methylimidazo[1,2-a]pyrazine-6-carboxamide] | 57 |
| CN(C(=O)c1cn2c(-c3ccc(C(F)(F)F)cc3)cnc2cn1)c1ccc(F)c(F)c1 [Compound 105, N-(3,4-difluorophenyl)-N-methyl-3-[4-(trifluoromethyl)phenyl]imidazo[1,2-a]pyrazine-6-carboxamide] | 41 |
